Where “and” joins values, the source holds several entries; their conditions need not be identical. Identical values can stand only once.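 Each compound was tested at five concentrations against cells in 96-well plates for 48 hours. At the GI50, growth is halved. TGI denotes the concentration required for complete inhibition of growth.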 Where only a bound is given, the exact number is not on record here.

Results on 13 molecules are retold here after PubChem BioAssay (NCI).

Among the test systems are UACC-257 melanoma; UACC-62 melanoma; HOP-92 NSCLC; A498 renal; COLO 205 colon; A549 NSCLC; ACHN renal; HL-60(TB) leukemia; SR leukemia; SK-MEL-5 melanoma.
What all share (experiment): NCI tumour cell line growth inhibition, 48 h

With `CC(=O)NC(CSC1=C2NC(=O)\C=C/C=C/C=C\C(C)C(O)CC(=O)/C(C)=C\CC(O)/C=C/C(C)C(O)C(C)C=C(C)C(=O)c3c(O)c(C)cc(c3C1=O)C2=O)C(=O)O` (stereo not given), the TGI is above 100 µM in the test on UACC-257 melanoma; above 100 µM with UACC-62 melanoma; above 100 µM with HOP-92 NSCLC; above 100 µM with A498 renal; 79.6 µM in the test with COLO 205 colon; above 100 µM with A549 NSCLC. Further, the TGI was above 100 µM with ACHN renal, 73.2 µM in the test with HL-60(TB) leukemia, above 100 µM in the test with SR leukemia and above 100 µM in the test on SK-MEL-5 melanoma.

For `COC(=O)C(CC(=O)Nc1ccc(Cl)c(Cl)c1)C(=O)C(=O)Nc1ccc(Cl)c(Cl)c1` (stereo not given), the TGI in the test with UACC-257 melanoma, in the test with UACC-62 melanoma, with HOP-92 NSCLC, with A498 renal, with COLO 205 colon and with A549 NSCLC was above 100 µM in each case. Moreover, the TGI with ACHN renal, with HL-60(TB) leukemia, with SR leukemia and with SK-MEL-5 melanoma was above 100 µM each time.

Regarding `C1CN(P2(N3CC3)=NP(N3CC3)(N3CC3)=NP(N3CC3)(N3CC3)=N2)CCO1` (stereo not given), the TGI with UACC-257 melanoma, with UACC-62 melanoma, in the test with HOP-92 NSCLC, in the test on A498 renal, with COLO 205 colon and in the test with A549 NSCLC was above 100 µM each time. Also, the TGI was above 100 µM in the test with ACHN renal, above 100 µM in the test with HL-60(TB) leukemia, above 47.4 µM with SR leukemia and above 100 µM with SK-MEL-5 melanoma.

Take `CC(C)c1cccc(O)c(=O)c1`: the GI50 was 2.33 µg/mL with UACC-257 melanoma; 4.17 µg/mL in the test with UACC-62 melanoma; 1.21 µg/mL with COLO 205 colon; 2.42 µg/mL with A549 NSCLC; 1.75 µg/mL in the test with ACHN renal; 1.25 µg/mL with HL-60(TB) leukemia. Besides, the GI50 with SR leukemia is 0.496 µg/mL; with SK-MEL-5 melanoma it was 1.35 µg/mL. Also, the TGI in the test with UACC-257 melanoma was 23 µg/mL and 46.6 µM; in the test on UACC-62 melanoma, 28.6 µg/mL and > 41.3 µM; in the test with HOP-92 NSCLC, above 100 µM; in the test on A498 renal, above 100 µM; in the test with A549 NSCLC it was > 75 µg/mL and > 74.5 µM; in the test on ACHN renal, 18.3 µg/mL and 48.9 µM.

In the case of `CC1(C)OC(=O)C(C#N)=C1C[n+]1ccccc1`, the TGI in the test on UACC-257 melanoma, with HOP-92 NSCLC, in the test with A498 renal, in the test with COLO 205 colon, in the test with ACHN renal and with HL-60(TB) leukemia was above 10 µM each time. Besides, the TGI in the test with SR leukemia and with SK-MEL-5 melanoma was above 10 µM throughout.

As for `C=C1C(=O)O[C@H]2[C@H]1CC/C(COC(=O)CCCc1c[nH]c3ccccc13)=C\CC[C@@]1(C)O[C@@H]21`, the GI50 in the test with UACC-257 melanoma is 2.03 µM; with UACC-62 melanoma, 1.84 µM; with HOP-92 NSCLC, 1.68 µM; with A498 renal it was 11.9 µM; in the test with COLO 205 colon, 1.86 µM; in the test with A549 NSCLC it was 5.47 µM. Moreover, the values for the GI50 in the test with HL-60(TB) leukemia, in the test on SR leukemia and with SK-MEL-5 melanoma were 1.63 µM, 1.73 µM and 1.74 µM, respectively. The TGI in the test on UACC-257 melanoma was found to be 3.96 µM; in the test on UACC-62 melanoma, 3.79 µM; in the test on HOP-92 NSCLC it was 3.46 µM; in the test on A498 renal, 24.3 µM; in the test on COLO 205 colon, 3.79 µM; in the test on A549 NSCLC, 22.4 µM. The TGI in the test on HL-60(TB) leukemia stood at 5.01 µM; in the test on SR leukemia it was 6.37 µM; with SK-MEL-5 melanoma, 3.13 µM.

Turning to `Cc1nc(N)nc(N)c1CCCc1ccccc1`, the TGI with UACC-257 melanoma was above 100 µM; with UACC-62 melanoma, above 100 µM; in the test on HOP-92 NSCLC, 46.6 µM; with COLO 205 colon it was above 100 µM; in the test on A549 NSCLC it was above 100 µM; in the test with ACHN renal, above 100 µM. Besides, the values for the TGI in the test with HL-60(TB) leukemia, in the test with SR leukemia and in the test with SK-MEL-5 melanoma were 71.7 µM, above 100 µM and above 100 µM, respectively.

For `CC(=O)OC12c3ccccc3-c3ccccc3C1C(C(=O)O)C2C(=O)O` (stereo not given), the TGI with UACC-257 melanoma, in the test with HOP-92 NSCLC, with A498 renal, in the test with COLO 205 colon, in the test with ACHN renal and with HL-60(TB) leukemia was above 10 µM throughout. Moreover, the TGI with SR leukemia and in the test on SK-MEL-5 melanoma was above 10 µM in each case.

In the case of `O=C(C#Cc1ccccc1)C1=Cc2ccccc2OC1`, the TGI was 8.23 µM in the test on UACC-257 melanoma; 4.26 µM in the test with UACC-62 melanoma; 39.2 µM in the test on A498 renal; 3.93 µM with COLO 205 colon; above 37.6 µM in the test with A549 NSCLC; 5.26 µM in the test with ACHN renal. Also, the TGI was above 100 µM with HL-60(TB) leukemia, above 100 µM in the test with SR leukemia and 4.89 µM with SK-MEL-5 melanoma.

Turning to `COC(=O)C1CC(OC(C)=O)C=C2C(=O)CCC21` (stereo not given), the TGI in the test with UACC-257 melanoma was 37 µM; in the test on UACC-62 melanoma it was 35.9 µM; with A498 renal, above 100 µM; in the test with COLO 205 colon, 34.4 µM; in the test on A549 NSCLC it was above 100 µM; with ACHN renal, 46.3 µM. Moreover, the TGI with HL-60(TB) leukemia stood at 29.5 µM; in the test with SR leukemia, 45.4 µM; in the test with SK-MEL-5 melanoma, 67.9 µM.

Take `CCOC(=O)C(Cc1ccccc1)NC(=O)c1[nH]cnc1/N=N/N(C)C` (stereo not given): the TGI with UACC-257 melanoma, in the test on UACC-62 melanoma, in the test with A498 renal, with COLO 205 colon, in the test with A549 NSCLC and with ACHN renal was above 100 µM in each case. The TGI with HL-60(TB) leukemia, in the test on SR leukemia and in the test on SK-MEL-5 melanoma was above 100 µM each time.

As to `N#C/C(=N\Nc1ccccc1)C(=O)Nc1cc(-c2ccccc2)nn1-c1ccccc1`, the GI50 in the test with UACC-257 melanoma was 2.47 µM; in the test with UACC-62 melanoma it was 1.65 µM; in the test with HOP-92 NSCLC it was 0.181 µM; with COLO 205 colon, 2.17 µM; in the test with A549 NSCLC it was 2.95 µM; with ACHN renal, 2.98 µM. The GI50 in the test on HL-60(TB) leukemia was 2.94 µM; in the test with SR leukemia, 5.19 µM; with SK-MEL-5 melanoma it was 1.54 µM. Also, the TGI is 9.93 µM in the test on UACC-257 melanoma; above 100 µM in the test with UACC-62 melanoma; 2.58 µM in the test with HOP-92 NSCLC; 4.77 µM with COLO 205 colon; above 100 µM in the test with A549 NSCLC; above 100 µM with ACHN renal. Moreover, the TGI is 22.1 µM in the test with HL-60(TB) leukemia, above 100 µM in the test on SR leukemia and 4.86 µM with SK-MEL-5 melanoma.

For `COc1cc(NS(C)(=O)=O)ccc1NCc1c2ccccc2nc2ccccc12`, the TGI is above 100 µM in the test with UACC-257 melanoma; above 100 µM in the test with UACC-62 melanoma; 92.7 µM in the test with HOP-92 NSCLC; above 100 µM in the test on COLO 205 colon; above 100 µM with A549 NSCLC; above 100 µM with ACHN renal. In addition, the TGI in the test with HL-60(TB) leukemia worked out at 47.4 µM; with SR leukemia, 62.9 µM.
